“And” between values parts separate entries of the source, which are not always exact repeats. Equal values may be shown once.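 All cell lines were grown in 96-well plates and treated with compound for 48 hours. Here, GI50 denotes the concentration required for 50% inhibition of growth. TGI marks complete inhibition of growth.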
Assays:
Test in all cases: NCI tumour cell line growth inhibition, 48 h
SF-295 CNS = test system: SF-295 CNS
UACC-62 melanoma = test system: UACC-62 melanoma
MDA-MB-231 breast = test system: MDA-MB-231 breast
NCI/ADR-RES ovarian = test system: NCI/ADR-RES ovarian
HCC-2998 colon = test system: HCC-2998 colon
SF-539 CNS = test system: SF-539 CNS
HCT-15 colon = test system: HCT-15 colon
TK-10 renal = test system: TK-10 renal
A498 renal = test system: A498 renal
SNB-19 CNS = test system: SNB-19 CNS

Cc1[nH]c(C(=O)Nc2ccc(C(=O)NCCN)cc2OC(C)C)c(Cl)c1Cl
GI50 (SF-295 CNS): 1.76 µM | TGI (SF-295 CNS): 3.23 µM | GI50 (UACC-62 melanoma): 1.7 µM | TGI (UACC-62 melanoma): 3.08 µM | GI50 (MDA-MB-231 breast): 1.69 µM | TGI (MDA-MB-231 breast): 3.27 µM | GI50 (NCI/ADR-RES ovarian): 4.32 µM | TGI (NCI/ADR-RES ovarian): 22.6 µM | GI50 (HCC-2998 colon): 1.82 µM | TGI (HCC-2998 colon): 3.48 µM | GI50 (SF-539 CNS): 1.68 µM | TGI (SF-539 CNS): 3.14 µM

c1ccc(/C(=N\Nc2nc3ccccc3[nH]2)c2ccccn2)cc1
TGI (HCT-15 colon): 5.83 µM | TGI (SF-295 CNS): 9.26 µM | TGI (TK-10 renal): 3.82 µM | TGI (A498 renal): 5.14 µM | TGI (UACC-62 melanoma): 6.23 µM | TGI (MDA-MB-231 breast): 41.2 µM | TGI (NCI/ADR-RES ovarian): 0.842 µM | TGI (HCC-2998 colon): 4.1 µM | TGI (SNB-19 CNS): > 100 µM | TGI (SF-539 CNS): 1.64 µM

CC(C)CCN(CCC(C)C)CC(=O)Nc1ccc(S(=O)(=O)c2ccc(NC(=O)CN(CCC(C)C)CCC(C)C)cc2)cc1
GI50 (HCT-15 colon): 1.29 µM | TGI (HCT-15 colon): 3.89 µM | GI50 (SF-295 CNS): 3.86 µM | TGI (SF-295 CNS): 16.5 µM | GI50 (TK-10 renal): 12.2 µM | TGI (TK-10 renal): 25.5 µM | GI50 (A498 renal): 16.5 µM | TGI (A498 renal): 38.8 µM | GI50 (UACC-62 melanoma): 1.55 µM | TGI (UACC-62 melanoma): 3.52 µM | GI50 (MDA-MB-231 breast): 2.08 µM | TGI (MDA-MB-231 breast): 6.39 µM | GI50 (NCI/ADR-RES ovarian): 2.93 µM | TGI (NCI/ADR-RES ovarian): > 100 µM | GI50 (HCC-2998 colon): 3.2 µM | TGI (HCC-2998 colon): 9.71 µM | GI50 (SNB-19 CNS): 2.19 µM | TGI (SNB-19 CNS): 10.3 µM | GI50 (SF-539 CNS): 1.57 µM | TGI (SF-539 CNS): 3.07 µM

C[N+]1(C(CO)Cc2c[nH]c3ccccc23)Cc2ccccc2C1 (stereo unspecified)
TGI (HCT-15 colon): > 100 µM | TGI (SF-295 CNS): > 100 µM | TGI (TK-10 renal): > 100 µM | TGI (A498 renal): > 100 µM | TGI (UACC-62 melanoma): > 100 µM | TGI (MDA-MB-231 breast): > 100 µM | TGI (NCI/ADR-RES ovarian): > 100 µM | TGI (HCC-2998 colon): > 100 µM | TGI (SNB-19 CNS): > 100 µM

C[n+]1c2ccccc2c(N=[N+]=[N-])c2ccccc21
TGI (HCT-15 colon): > 10 µM | TGI (SF-295 CNS): > 10 µM | TGI (TK-10 renal): > 10 µM | TGI (A498 renal): > 10 µM | TGI (UACC-62 melanoma): > 10 µM | TGI (MDA-MB-231 breast): > 10 µM | TGI (NCI/ADR-RES ovarian): > 10 µM | TGI (HCC-2998 colon): > 10 µM | TGI (SNB-19 CNS): > 10 µM | TGI (SF-539 CNS): > 10 µM

C=C(CN(C)C)C(=O)c1ccccc1OC
TGI (HCT-15 colon): 33.3 µM | TGI (SF-295 CNS): > 71.9 µM | TGI (TK-10 renal): 30.3 µM | TGI (A498 renal): 64 µM | TGI (UACC-62 melanoma): 37 µM | TGI (MDA-MB-231 breast): 28 µM | TGI (NCI/ADR-RES ovarian): 65.3 µM | TGI (HCC-2998 colon): 51.1 µM | TGI (SNB-19 CNS): > 87.6 µM | TGI (SF-539 CNS): 31.5 µM

O=C1OC(c2ccc(O)cc2)(c2ccc(O)cc2)c2ccc(Cl)c3cccc1c23 (tested in a mixture with another compound)
TGI (HCT-15 colon): 22.8 µM | TGI (SF-295 CNS): 25.2 µM | TGI (TK-10 renal): 52.6 µM | TGI (A498 renal): > 75 µM | TGI (UACC-62 melanoma): 21.9 µM | TGI (MDA-MB-231 breast): 26.1 µM | TGI (NCI/ADR-RES ovarian): 25.7 µM | TGI (SNB-19 CNS): > 75 µM | TGI (SF-539 CNS): 20.8 µM

O=C1Nc2cccc(Cl)c2/C1=C\c1cccnc1
TGI (HCT-15 colon): > 100 µM | TGI (SF-295 CNS): 34.6 µM | TGI (TK-10 renal): 34.7 µM | TGI (A498 renal): 37.1 µM | TGI (NCI/ADR-RES ovarian): 15.9 µM | TGI (HCC-2998 colon): 7.86 µM | TGI (SNB-19 CNS): 16.3 µM | TGI (SF-539 CNS): 39.7 µM

CCCCCCCCCCCCc1ccc(S(=O)(=O)O)cc1.[Cu+2]
TGI (HCT-15 colon): > 100 µM | TGI (SF-295 CNS): > 100 µM | TGI (TK-10 renal): > 100 µM | TGI (A498 renal): > 100 µM | TGI (UACC-62 melanoma): > 100 µM | TGI (MDA-MB-231 breast): > 100 µM | TGI (NCI/ADR-RES ovarian): > 100 µM | TGI (HCC-2998 colon): > 100 µM | TGI (SNB-19 CNS): > 100 µM | TGI (SF-539 CNS): > 100 µM

COc1ccccc1C#C/C=C\C#Cc1ccccc1C#N
TGI (HCT-15 colon): > 100 µM | TGI (SF-295 CNS): 47.1 µM | TGI (TK-10 renal): > 100 µM | TGI (UACC-62 melanoma): > 100 µM | TGI (NCI/ADR-RES ovarian): > 100 µM | TGI (HCC-2998 colon): 47.4 µM | TGI (SNB-19 CNS): > 100 µM | TGI (SF-539 CNS): 82.7 µM

CC(=O)OC(C(=O)O)C(OC(C)=O)C(OC(C)=O)C(OC(C)=O)C(=O)O (stereo unspecified)
TGI (HCT-15 colon): > 100 µM | TGI (SF-295 CNS): > 100 µM | TGI (TK-10 renal): > 100 µM | TGI (A498 renal): > 100 µM | TGI (UACC-62 melanoma): > 100 µM | TGI (MDA-MB-231 breast): > 100 µM | TGI (NCI/ADR-RES ovarian): > 100 µM | TGI (SNB-19 CNS): > 100 µM | TGI (SF-539 CNS): > 100 µM

O=C(CSCC(=O)N/N=C\c1ccc(F)cc1F)N/N=C\c1ccc(F)cc1F
TGI (HCT-15 colon): > 100 µM | TGI (SF-295 CNS): > 100 µM | TGI (TK-10 renal): > 100 µM | TGI (A498 renal): > 100 µM | TGI (UACC-62 melanoma): > 100 µM | TGI (MDA-MB-231 breast): > 100 µM | TGI (NCI/ADR-RES ovarian): > 100 µM | TGI (HCC-2998 colon): > 100 µM | TGI (SNB-19 CNS): > 100 µM | TGI (SF-539 CNS): > 100 µM

CC(C)CNC1=NCC(C)S1 (stereo unspecified)
TGI (HCT-15 colon): > 100 µM | TGI (SF-295 CNS): > 100 µM | TGI (TK-10 renal): > 100 µM | TGI (A498 renal): > 100 µM | TGI (UACC-62 melanoma): > 100 µM | TGI (MDA-MB-231 breast): > 100 µM | TGI (HCC-2998 colon): > 100 µM | TGI (SNB-19 CNS): > 100 µM | TGI (SF-539 CNS): > 100 µM

COC(=O)c1c(O)ccc2c1c1c(n2CCc2ccc(OC)c(OC)c2)C(=O)c2ccccc2C1=O
TGI (HCT-15 colon): 29.3 µM | TGI (SF-295 CNS): 38 µM | TGI (TK-10 renal): 57.1 µM | TGI (A498 renal): 32.9 µM | TGI (UACC-62 melanoma): 32.9 µM | TGI (MDA-MB-231 breast): 52.3 µM | TGI (NCI/ADR-RES ovarian): 31.7 µM | TGI (HCC-2998 colon): 15.7 µM | TGI (SNB-19 CNS): > 100 µM | TGI (SF-539 CNS): 28.1 µM

CC[C@@]1(O)CC(OC2CC(N3CCOCC3)C(O)C(C)O2)c2c(O)c3c(c(O)c2[C@H]1O)C(=O)c1cccc(O)c1C3=O (stereo partly specified)
GI50 (HCT-15 colon): 0.0358 µM | TGI (HCT-15 colon): 1.44 µM and 3.18 µM | GI50 (SF-295 CNS): 0.0292 µM | TGI (SF-295 CNS): 0.526 µM and 0.357 µM | TGI (TK-10 renal): 1.7 µM | GI50 (A498 renal): 0.07 µM | TGI (A498 renal): 0.634 µM and 0.229 µM | GI50 (UACC-62 melanoma): 0.0389 µM | TGI (UACC-62 melanoma): 0.428 µM and 0.301 µM | TGI (MDA-MB-231 breast): 1.94 µM | GI50 (NCI/ADR-RES ovarian): 0.0133 µM | TGI (NCI/ADR-RES ovarian): 1.55 µM and 4.61 µM | GI50 (HCC-2998 colon): 0.13 µM | TGI (HCC-2998 colon): 0.904 µM and 0.916 µM | GI50 (SNB-19 CNS): 0.0292 µM | TGI (SNB-19 CNS): 3.92 µM and 4.16 µM | GI50 (SF-539 CNS): 0.0233 µM | TGI (SF-539 CNS): 1.07 µM and 0.71 µM

O=C(O)c1cc2ccccc2c(N=Nc2ccc(S(=O)(=O)Nc3ccccn3)cc2)c1O
TGI (HCT-15 colon): > 100 µM | TGI (SF-295 CNS): > 100 µM | TGI (TK-10 renal): > 100 µM | TGI (UACC-62 melanoma): > 100 µM | TGI (MDA-MB-231 breast): > 100 µM | TGI (NCI/ADR-RES ovarian): > 100 µM | TGI (HCC-2998 colon): > 100 µM | TGI (SNB-19 CNS): > 100 µM | TGI (SF-539 CNS): > 100 µM

From PubChem BioAssay (NCI)
